“Also recorded” adds a separate entry of the source.
Columns and labels:
Type in all cases: cell-based, human
HUVEC = test: Proteome profiler of angiogenic proteins secreted by endothelial cells; conditions: single agent compared with CPX+S1P
Description: (§1) FIG. 4: CPX and S1P induce secretion of different angiogenic proteins by endothelial cells and fibroblasts. […] (E) and (J): representative images of 3 proteomic profiler membranes showing differences in protein secretion between CPX and S1P treated group and non-treated group (culture media control). (K) and (L): ELISA quantitation of PlGF and VEGF corroborating semi-quantitative results shown in A-I. The negative values in the plots denote the cellular uptake of the measured proteins as opposed to secrete them. * p<0.05 As the experimental set-up favoured soluble factors as messengers between the two cell types the secretion of angiogenic factors by fibroblasts and endothelial cells in the presence of CPX and S1P, respectively, was assessed. Proteome profiler data indicated the increased secretion of several proteins including PlGF (6 fold), IL-8 (3 fold), EGF (2.9 fold) and endothelin-1 (1.5 fold) by CPX+S1P by endothelial cells.

IMR-90 fibroblasts = test: Proteome profiler of angiogenic proteins secreted by fibroblasts; conditions: single agent compared with CPX+S1P
Description: as §1, with “In fibroblasts, CPX+S1P expression” for “Proteome profiler data indicated the increased secretion”, “HGF (1.4” for “several proteins including PlGF (6”, “IGFBP-2 (1.8” for “IL-8 (3”, “uPA (1.6” for “EGF (2.9”, “VEGF (11 fold). […] In fibroblasts an increase of VEGF secretion which was 1819±754.1 (±standard error) pg/ml-Million cell-day was confirmed.” for “endothelin-1 (1.5 fold) by CPX+S1P by endothelial cells.”

IMR90 cells = test: ELISA of MCP-1 secreted by IMR90 cultured in EC conditioned medium
Protocol: FIG. 5: Endothelial CM modulates growth factor secretion by fibroblasts. (A) ELISA: fibroblasts secrete 5 times more MCP-1 cultured in EC CM. […] (B) and (C): semi-quantitative proteomic array plots showing clearance of EC secreted endothelin-1 and EGF from culture media in the presence of fibroblasts. […] To study the influence of endothelial cells on fibroblasts IMR90 cells were cultured in EC conditioned medium with or without the addition of CPX+S1P, and quantified factors secreted by fibroblasts by ELISA. […] Endothelial cell CM induced the secretion of MCP-1 by fibroblasts by 3-fold in the absence of any CPX+S1P induction, however, the combination of both pharmacological agents increased MCP-1 secretion by a further 20%.

fibroblasts (IMR-90) = test: ELISA quantitation of VEGF secretion by fibroblasts
Description: (§2) FIG. 4: CPX and S1P induce secretion of different angiogenic proteins by endothelial cells and fibroblasts. […] (E) and (J): representative images of 3 proteomic profiler membranes showing differences in protein secretion between CPX and S1P treated group and non-treated group (culture media control). (K) and (L): ELISA quantitation of PlGF and VEGF corroborating semi-quantitative results shown in A-I. The negative values in the plots denote the cellular uptake of the measured proteins as opposed to secrete them. * p<0.05 In fibroblasts, CPX+S1P expression of HGF (1.4 fold), IGFBP-2 (1.8 fold), uPA (1.6 fold) and VEGF (11 fold). […] In fibroblasts an increase of VEGF secretion which was 1819±754.1 (±standard error) pg/ml-Million cell-day was confirmed.

endothelia (HUVEC) = test: ELISA quantitation of PlGF secretion by endothelial cells
Description: as §2

Compound	increased secretion of PlGF, IL-8, EGF and endothelin-1 by endothelial cells, single agent (HUVEC)	increased secretion of HGF, IGFBP-2, uPA and VEGF by fibroblasts, single agent (IMR-90 fibroblasts)	effect on MCP-1 secretion by fibroblasts, monosubstance (IMR90 cells)	effect on VEGF secretion (fibroblasts (IMR-90))	effect on PlGF secretion rate (endothelia (HUVEC))
Cc1cc(C2CCCCC2)n(O)c(=O)c1 [CPX, ciclopirox olamine]	Highly comparable increases; also recorded: main compound causing the observed upregulation	Highly comparable increases; also recorded: main compound causing the observed upregulation	neither S1P nor CPX were able to increase basal MCP-1 secretion; also recorded: No significant difference	–	–
CCCCCCCCCCCCC/C=C/[C@@H](O)[C@@H](N)COP(=O)(O)O [S1P, sphingosine 1-phosphate]	none were observed	none were observed	neither S1P nor CPX were able to increase basal MCP-1 secretion; also recorded: No significant difference	did not elicit measurable effects	did not show any effect
